Test results taken from US20120010229A1, “THERAPEUTIC REGIMENS FOR HEDGEHOG-ASSOCIATED CANCERS” (priority 2010, published 2012).

Legend:
Ptc^C/C medulloblastoma = assay: Ptc^C/C mouse medulloblastoma model: survival, symptoms, MRI tumor volume; assay type: in vivo
Text: Transgenic mice were maintained in accordance with the NIH Guide for the Care and Use of Experimental Animals with approval from our Institutional Animal Care and Use Committee. Conditional Patched1 null mice (Ptc^C/C) were generated on a mixed background by breeding mice homozygous for the floxed Ptch1 allele (Adolphe et al., (2006) Cancer Res 66: 2081-2088) to Math1-Cre mice, as previously described (Yang et al. (2008) Cancer Cell 14: 135-145). Mice were genotyped by PCR using genomic DNA using the following primers:
Animal experiments were performed in accordance with the NIH Guide for the Care and Use of Experimental Animals with approval from our Institutional Animal Care and Use Committee. 100% penetrance of medulloblastoma in the Ptc^C/C mice was observed, with all mice displaying symptoms of tumor formation by the time of weaning. Ptc^C/C mice (age ranging from 21-36 days) were randomized to receive either IPI-926 (Infinity Pharmaceuticals) or vehicle control (5% (2-Hydroxylpropyl)-B-Cyclodextrin (HPBCD), Sigma Aldrich) administered via intraperitoneal (IP) injection.
Mice were euthanized using CO2 inhalation, brains were removed and tissue snap frozen for RNA studies or fixed in 10% buffered formalin and processed for histopathological examination. Formalin-fixed tissues were paraffin embedded, cut into 4 um sections and stained with Haematoxylin and Eosin using standard methods.
Magnetic resonance imaging (MRI) was performed using a 3 Tesla MRI system (Philips Achieva, Philips Healthcare, Andover, Mass.) and a custom mouse head coil. Serial MR scans were performed using a 35 minute coronal high-resolution T2-weighted sequence (TE=110 ms, TR=2000 ms, bandwidth=212, 2 NEX or signal averages, a matrix of 256×256 pixels in-plane, slice thickness of 320 microns and an interslice gap of 160 microns). Mice were scanned under halothane anesthesia at enrollment, after 3 weeks of treatment, and after 6 weeks of treatment. Ctx:Cy5.5 bioconjugate (Tumor Paint) was given by intravenous tail vein injection one day prior to animal sacrifice. Biophotonic images were obtained using the Xenogen Spectrum imaging system (Caliper Life Sciences) as previously described (Veiseh et al. (2007) Cancer 67: 6882-6888).
DICOM images were exported from the MRI scanner to a web-based repository (BioScribe) and then imported into ITK-SNAP (version 2.0, available on the world wide web at itksnap.org). Images were first windowed to accentuate tumor/brain contrast, easily observed on the T2-weighted scans. […] Effacement of the fourth ventricle was accompanied by lateral and third ventriculomegaly and transependymal CSF flow. Tumor and enlarged cerebellum was seen to herniate into the internal auditory canals (IAC) bilaterally. After each imaging time-point, using the manual tracing tool, tumor tissue (including the IAC components) was painted in three planes excluding frank cerebrospinal fluid or cystic regions. The resultant segmentation file was saved for later use. Three-dimensional surface-rendered reconstructions were then performed and saved in two standard projections for each tumor analyzed, with the aim of delineating a consistent view of the tumor for comparison between pre- and post-treatment scans and between treatment groups. Automated pixel counting multiplied by image pixel dimensions yielded volumetric measures for each segmentation analysis dataset. In addition to quantitative analysis, pre and post-treatment scans were compared for evaluation of secondary changes such as hydrocephalus, prominent extra-axial spaces, cystic change/necrosis in treated tumor and any evidence of hemorrhage.
Studies were designed to detect differences in event rates that approximately corresponded to a doubling of median improvement in survival of (3 weeks) with 90% power based on simulated power experiments. […]

[1] = tested on: KPC mice pancreatic tumors; conditions: combination of IPI-926 and Gemcitabine; cited from earlier work
[2] = mouse, in vivo
Procedure: IPI-926 drug levels in tumor and brain samples were determined as described previously (Olive et al., (2009) Science 324: 1457-1461). Briefly, samples were homogenized in 4 volumes of CAN:PBS buffer and homogenized using a Geno/Grinder from SPEX CertiPrep (Metuchen, N.J.) for 2 minutes. Homogenates were then filtered using […] low binding hydrophilic multiscreen solvinert late (Millipore) and collected in a 96-well plate. The tissue filtrates were diluted 1:1 and IPI-926 levels were determined. Sample analysis was performed on an Agilent 1200 from Agilent Technologies (Santa Clara, Calif.) coupled with an API-4000 mass spectrometer from Applied Biosystems (Foster City, Calif.) for detection. Data were acquired and processed using the software Analyst 1.4.1 (Applied Biosystems). Sample concentrations, as measured by their peak area ratios (analyte divided by internal standard), were determined from the calibration curves.

## CC1=C2C[C@H]3[C@@H](CC[C@@H]4C[C@H](NS(C)(=O)=O)CC[C@@]43C)[C@@H]2CC[C@@]2(C1)O[C@@H]1C[C@H](C)CN[C@H]1[C@H]2C [IPI-926]
Ptc^C/C medulloblastoma; 20 mg/kg/day, after maximal size reduction at 3 weeks
  fraction of mice with rebound in tumor growth by 6 weeks (MRI): approximately half
Ptc^C/C medulloblastoma; after three weeks of daily administration
  tumor volume by MRI: substantial tumor regression
Ptc^C/C medulloblastoma; drug withdrawn after six weeks of daily 20 mg/kg
  average time to death after stopping treatment: ≤ 10 days
Ptc^C/C medulloblastoma; pilot study, daily IP 20 mg/kg/dose, 19 days of treatment
  clinical symptoms of medulloblastoma: full resolution of clinical symptoms
Ptc^C/C medulloblastoma; six weeks daily then maintenance 20 mg/kg twice per week
  mice still alive six weeks after starting twice-a-week therapy: 77%
Ptc^C/C medulloblastoma; six weeks of daily IPI-926 20 mg/kg IP, vehicle 0%
  survival: 100%
[1]
  intratumoral vascular density and gemcitabine concentration: transient increase in intratumoral vascular density and intratumoral concentration of gemcitabine
[2]
  blood brain barrier penetration: crossed the blood brain barrier
